Test results reported in patent publication US9265253B2, “Use of macrocyclic picolinamides as fungicides” (DOW AGROSCIENCES LLC, priority 2013, dated 2016).
Like-named read-outs stand apart in the source and are kept apart here.

Key:
[1] = system: Puccinia triticina; Synonym: Puccinia recondite f. Sp. Tritici; test: Wheat Brown Rust (PUCCRT) disease control; type: in vivo; conditions: Puccinia triticina, topical; for pest or weed control at 100 ppm: rate 100 ppm; for pest or weed control at 121.5 g/ha: rate 121.5 g/H
Protocol: (§1) Technical grades of materials were dissolved in acetone, which were then mixed with nine volumes of water containing 110 ppm Triton X-100. The fungicide solutions were applied onto wheat seedlings using an automated booth sprayer to run-off. All sprayed plants were allowed to air dry prior to further handling. All fungicides were evaluated using the aforementioned method for their activity vs. all target diseases. Wheat leaf blotch and brown rust activity were also evaluated using track spray applications, in which case the fungicides were formulated as EC formulations, containing 0.1% Trycol 5941 in the spray solutions. Wheat plants (variety Yuma) were grown from seed in a greenhouse in 50% mineral soil/50% soil-less Metro mix until the first leaf was fully emerged, with 7-10 seedlings per pot. These plants were inoculated with an aqueous spore suspension of Septoria tritici either prior to or after fungicide treatments. After inoculation the plants were kept in 100% relative humidity (one day in a dark dew chamber followed by two to three days in a lighted dew chamber at 20° C.) to permit spores to germinate and infect the leaf. The plants were then transferred to a greenhouse set at 20° C. for disease to develop. When disease symptoms were fully expressed on the 1st leaves of untreated plants, infection levels were assessed on a scale of 0 to 100 percent disease severity. Percent disease control was calculated using the ratio of disease severity on treated plants relative to untreated plants. Wheat plants (variety Yuma) were grown from seed in a greenhouse in 50% mineral soil/50% soil-less Metro mix until the first leaf was fully emerged, with 7-10 seedlings per pot. These plants were inoculated with an aqueous spore suspension of Puccinia triticina either prior to or after fungicide treatments. After inoculation the plants were kept in a dark dew room at 22° C. with 100% relative humidity overnight to permit spores to germinate and infect the leaf. The plants were then transferred to a greenhouse set at 24° C. for disease to develop. Fungicide formulation, application and disease assessment followed the procedures as described in the Example A.

[2] = system: Mycosphaerella graminicola; Anamorph: Septoria tritici; test: Leaf Blotch of Wheat (SEPTTR) disease control; type: in vivo; conditions: Zymoseptoria tritici; for pest or weed control at 100 ppm: rate 100 ppm; for pest or weed control at 121.5 g/ha: rate 121.5 g/H
Protocol: as §1, with “plants.” for “plants. Wheat plants (variety Yuma) were grown from seed in a greenhouse in 50% mineral soil/50% soil-less Metro mix until the first leaf was fully emerged, with 7-10 seedlings per pot. These plants were inoculated with an aqueous spore suspension of Puccinia triticina either prior to or after fungicide treatments. After inoculation the plants were kept in a dark dew room at 22° C. with 100% relative humidity overnight to permit spores to germinate and infect the leaf. The plants were then transferred to a greenhouse set at 24° C. for disease to develop. Fungicide formulation, application and disease assessment followed the procedures as described in the Example A.”

[3] = 24 h, 1 Day Protectant, read-out: PUCCRT 1 DP disease control
[4] = 72 h, 3 Day Curative, read-out: PUCCRT 3 DC disease control
[5] = 24 h, 1 Day Protectant, read-out: SEPTTR 1 DP disease control
[6] = 72 h, 3 Day Curative, read-out: SEPTTR 3 DC disease control

Structure (SMILES)	pest or weed control at 100 ppm [1, 3]	pest or weed control at 100 ppm [1, 4]	pest or weed control at 100 ppm [2, 5]	pest or weed control at 100 ppm [2, 6]	pest or weed control at 121.5 g/ha [1, 3]	pest or weed control at 121.5 g/ha [1, 4]	pest or weed control at 121.5 g/ha [2, 5]	pest or weed control at 121.5 g/ha [2, 6]
COc1ccnc(C(=O)N[C@H]2CCC[C@H](CCC(C)C)[C@@H](OC)[C@H](C)OC2=O)c1O [Compound F7]	80 to 100%	0 to 80%	80 to 100%	80 to 100%	–	–	–	–
COc1ccnc(C(=O)N[C@H]2CCC[C@H](CCBr)[C@@H](Oc3ccccc3)[C@H](C)OC2=O)c1OCOC(C)=O [Compound F135]	80 to 100%	80 to 100%	80 to 100%	80 to 100%	–	–	–	–
COc1ccnc(C(=O)N[C@H]2CCC[C@H](CCC(C)C)[C@@H](OC3CCCC3)[C@H](C)OC2=O)c1OCOC(C)=O [Compound F94]	80 to 100%	80 to 100%	80 to 100%	80 to 100%	–	–	–	–
COc1ccnc(C(=O)N[C@H]2CCC[C@H](Cc3ccccc3)[C@@H](Oc3ccccc3)[C@H](C)OC2=O)c1O [Compound F20]	80 to 100%	0 to 80%	80 to 100%	80 to 100%	–	–	–	–
COc1ccnc(C(=O)N[C@H]2CCC[C@H](CCC(C)C)[C@@H](OC)[C@H](C)OC2=O)c1OC(C)=O [Compound F66]	80 to 100%	80 to 100%	80 to 100%	80 to 100%	0 to 80%	0 to 80%	80 to 100%	0 to 80%
CCOCC(=O)OCOc1c(OC)ccnc1C(=O)N[C@H]1CCC[C@H](CC2CCCC2)[C@@H](OCC2CC2)[C@H](C)OC1=O [Compound F178]	80 to 100%	80 to 100%	80 to 100%	80 to 100%	80 to 100%	0 to 80%	80 to 100%	80 to 100%
CCOCC(=O)OCOc1c(OC)ccnc1C(=O)N[C@H]1CCC[C@H](Cc2ccc(F)cc2)[C@@H](Oc2ccccc2)[C@H](C)OC1=O [Compound F165]	80 to 100%	80 to 100%	80 to 100%	80 to 100%	80 to 100%	0 to 80%	80 to 100%	80 to 100%
COc1ccc(C[C@H]2CCC[C@H](NC(=O)c3nccc(OC)c3O)C(=O)O[C@@H](C)[C@@H]2OC(=O)C2CCCC2)cc1 [Compound F28]	80 to 100%	–	80 to 100%	0 to 80%	–	–	–	–
CCCO[C@@H]1[C@@H](CCC(C)C)CCC[C@H](NC(=O)c2nccc(OC)c2O)C(=O)O[C@H]1C [Compound F4]	80 to 100%	80 to 100%	80 to 100%	80 to 100%	–	–	–	–
COc1ccnc(C(=O)N[C@H]2CCC[C@H](CCC(C)C)[C@@H](OC3CCCC3)[C@H](C)OC2=O)c1O [Compound F6]	80 to 100%	80 to 100%	80 to 100%	80 to 100%	–	–	–	–
CC[C@H]1CCC[C@H](NC(=O)c2nccc(OC)c2OCOC(C)=O)C(=O)O[C@@H](C)[C@@H]1Oc1ccccc1 [Compound F136]	80 to 100%	80 to 100%	80 to 100%	80 to 100%	80 to 100%	80 to 100%	80 to 100%	80 to 100%
COCCC(=O)Oc1c(OC)ccnc1C(=O)N[C@H]1CCC[C@H](CC2CCCC2)[C@@H](Oc2ccccc2)[C@H](C)OC1=O [Compound F153]	80 to 100%	80 to 100%	80 to 100%	80 to 100%	80 to 100%	0 to 80%	80 to 100%	80 to 100%
CCOCC(=O)Oc1c(OC)ccnc1C(=O)N[C@H]1CCC[C@H](CCOC)[C@@H](Oc2ccccc2)[C@H](C)OC1=O [Compound F186]	80 to 100%	80 to 100%	80 to 100%	80 to 100%	–	–	–	–
COc1ccnc(C(=O)N[C@H]2CCC[C@H](Cc3ccc(F)cc3)[C@@H](Oc3ccccc3)[C@H](C)OC2=O)c1O [Compound F11]	80 to 100%	0 to 80%	80 to 100%	80 to 100%	–	–	–	–
COc1ccnc(C(=O)N[C@H]2CCC[C@H](Cc3ccc(F)cc3)[C@@H](OC(=O)C3CCCC3)[C@H](C)OC2=O)c1OCOC(C)=O [Compound F104]	80 to 100%	80 to 100%	80 to 100%	80 to 100%	80 to 100%	0 to 80%	80 to 100%	80 to 100%
CCOCC(=O)Oc1c(OC)ccnc1C(=O)N[C@H]1CCC[C@H](CCOC)[C@@H](OCC(C)C)[C@H](C)OC1=O [Compound F188]	80 to 100%	80 to 100%	80 to 100%	80 to 100%	80 to 100%	80 to 100%	80 to 100%	80 to 100%
COc1ccnc(C(=O)N[C@H]2CCC[C@H](CCSC)[C@@H](OCC(C)C)[C@H](C)OC2=O)c1O [Compound F46]	80 to 100%	80 to 100%	0 to 80%	80 to 100%	–	–	–	–
CCOCC(=O)OCOc1c(OC)ccnc1C(=O)N[C@H]1CCC[C@H](CCC(C)C)[C@@H](OCCCC(F)(F)F)[C@H](C)OC1=O [Compound F162]	80 to 100%	80 to 100%	80 to 100%	80 to 100%	80 to 100%	0 to 80%	80 to 100%	80 to 100%
COc1ccnc(C(=O)N[C@H]2CCC[C@H](Cc3ccc(C)cc3)[C@@H](OCC3CC3)[C@H](C)OC2=O)c1O [Compound F42]	80 to 100%	80 to 100%	80 to 100%	80 to 100%	–	–	–	–
CCOCC(=O)Oc1c(OC)ccnc1C(=O)N[C@H]1CCC[C@H](CCOc2ccccc2)[C@@H](Oc2ccccc2)[C@H](C)OC1=O [Compound F185]	80 to 100%	80 to 100%	80 to 100%	80 to 100%	–	–	–	–
COc1ccc(C[C@H]2CCC[C@H](NC(=O)c3nccc(OC)c3O)C(=O)O[C@@H](C)[C@@H]2Oc2ccccc2)cc1 [Compound F26]	80 to 100%	0 to 80%	80 to 100%	80 to 100%	–	–	–	–
